In US6525001B1, “Substituted pyrimidine and pyridine herbicides” (Mid-American Commercialization Corporation, priority 1997, dated 2003):

Tests used:
Assay in all cases: Test B pre-/postemergence
Assay type in all cases: in vivo
Parameters in all cases: key: 0 is no effect; 10 is complete control
[1] = system: velvetleaf (Abutilon theophrasti)
Procedure, shortened: (§1)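 Response scores run from 0, meaning no effect, to 10, meaning complete control, assigned by eye relative to controls twelve to sixteen days after spraying. Treatment was both preemergence on planted seed and postemergence on plants at the 1- to 4-leaf stage.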

[2] = system: sugar beet (Beta vulgaris)
Procedure, shortened: as §1

soybean (Glycine max) = system: soybean (Glycine max)
Procedure, shortened: as §1

[3] = system: cocklebur (Xanthium strumarium)
Procedure, shortened: as §1

[4] = system: momingglory (Ipomoea hederacea)
Procedure, shortened: as §1

[5] = system: crabgrass (Digitaria sanguinalis)
Procedure, shortened: as §1

[6] = system: purple nutsedge (Cyperus rotundus)
Procedure, shortened: as §1

[7] = system: bedstraw (Galium aparine)
Procedure, shortened: as §1

wild oat (Avena fatua) = system: wild oat (Avena fatua)
Procedure, shortened: as §1

corn (Zea mays) = system: corn (Zea mays)
Procedure, shortened: as §1

rape (Brassica napus) = system: rape (Brassica napus)
Procedure, shortened: as §1

[8] = system: wheat (Triticum aestivum)
Procedure, shortened: as §1

[9] = system: giant foxtail (Setaria faberii)
Procedure, shortened: as §1

[10] = system: pigweed (Amaranthus retroflexus)
Procedure, shortened: as §1

[11] = Preemergence, Rate 62 g/ha, scale of 0 to 10

Cc1cnc(-c2ccc(C(F)(F)F)cc2)nc1Cn1cc(Br)cn1 [Compound 54]
Plant response rating, Velvetleaf [1, 11]: 0 | Velvetleaf plant response rating ([1]; Rate 62 g/ha, Postemergence): 2 | Velvetleaf plant response rating ([1]; Rate 125 g/ha, Postemergence): 2 | Plant response rating, Velvetleaf ([1]; Rate 125 g/ha, Preemergence): 0 | Plant response rating, Velvetleaf ([1]; Rate 250 g/ha, Postemergence): 3 | Plant response rating, Velvetleaf ([1]; Rate 250 g/ha, Preemergence): 1 | Plant response rating, Velvetleaf ([1]; Rate 500 g/ha, Postemergence): 3 | Plant response rating, Velvetleaf ([1]; Rate 500 g/ha, Preemergence): 1 | Plant response rating, Sugarbeets [2, 11]: 0 | Sugarbeets plant response rating ([2]; Rate 62 g/ha, Postemergence): 6 | Sugarbeets plant response rating ([2]; Rate 125 g/ha, Postemergence): 7 | Plant response rating, Sugarbeets ([2]; Rate 125 g/ha, Preemergence): 1 | Plant response rating, Sugarbeets ([2]; Rate 250 g/ha, Postemergence): 9 | Plant response rating, Sugarbeets ([2]; Rate 250 g/ha, Preemergence): 7 | Plant response rating, Sugarbeets ([2]; Rate 500 g/ha, Postemergence): 9 | Plant response rating, Sugarbeets ([2]; Rate 500 g/ha, Preemergence): 9 | Plant response rating, Soybean (soybean (Glycine max); [11]): 0 | Soybean plant response rating (soybean (Glycine max); Rate 62 g/ha, Postemergence): 0 | Soybean plant response rating (soybean (Glycine max); Rate 125 g/ha, Postemergence): 3 | Plant response rating, Soybean (soybean (Glycine max); Rate 125 g/ha, Preemergence): 0 | Plant response rating, Soybean (soybean (Glycine max); Rate 250 g/ha, Postemergence): 4 | Plant response rating, Soybean (soybean (Glycine max); Rate 250 g/ha, Preemergence): 0 | Plant response rating, Soybean (soybean (Glycine max); Rate 500 g/ha, Postemergence): 4 | Plant response rating, Soybean (soybean (Glycine max); Rate 500 g/ha, Preemergence): 0 | Cocklebur plant response rating ([3]; Rate 62 g/ha, Postemergence): 3 | Cocklebur plant response rating ([3]; Rate 125 g/ha, Postemergence): 3 | Plant response rating, Cocklebur ([3]; Rate 125 g/ha, Preemergence): 0 | Plant response rating, Cocklebur ([3]; Rate 250 g/ha, Postemergence): 7 | Plant response rating, Cocklebur ([3]; Rate 250 g/ha, Preemergence): 0 | Plant response rating, Cocklebur ([3]; Rate 500 g/ha, Postemergence): 9 | Plant response rating, Cocklebur ([3]; Rate 500 g/ha, Preemergence): 0 | Plant response rating, Morningglory [4, 11]: 0 | Morningglory plant response rating ([4]; Rate 62 g/ha, Postemergence): 2 | Morningglory plant response rating ([4]; Rate 125 g/ha, Postemergence): 3 | Plant response rating, Morningglory ([4]; Rate 125 g/ha, Preemergence): 1 | Plant response rating, Morningglory ([4]; Rate 250 g/ha, Postemergence): 3 | Plant response rating, Morningglory ([4]; Rate 250 g/ha, Preemergence): 2 | Plant response rating, Morningglory ([4]; Rate 500 g/ha, Postemergence): 10 | Plant response rating, Morningglory ([4]; Rate 500 g/ha, Preemergence): 2 | Plant response rating, Crabgrass [5, 11]: 0 | Crabgrass plant response rating ([5]; Rate 62 g/ha, Postemergence): 2 | Crabgrass plant response rating ([5]; Rate 125 g/ha, Postemergence): 4 | Plant response rating, Crabgrass ([5]; Rate 125 g/ha, Preemergence): 0 | Plant response rating, Crabgrass ([5]; Rate 250 g/ha, Postemergence): 5 | Plant response rating, Crabgrass ([5]; Rate 250 g/ha, Preemergence): 3 | Plant response rating, Crabgrass ([5]; Rate 500 g/ha, Postemergence): 5 | Plant response rating, Crabgrass ([5]; Rate 500 g/ha, Preemergence): 8 | Plant response rating, Nutsedge [6, 11]: 0 | Nutsedge plant response rating ([6]; Rate 62 g/ha, Postemergence): 0 | Nutsedge plant response rating ([6]; Rate 125 g/ha, Postemergence): 0 | Plant response rating, Nutsedge ([6]; Rate 125 g/ha, Preemergence): 0 | Plant response rating, Nutsedge ([6]; Rate 250 g/ha, Postemergence): 0 | Plant response rating, Nutsedge ([6]; Rate 250 g/ha, Preemergence): 0 | Plant response rating, Nutsedge ([6]; Rate 500 g/ha, Postemergence): 0 | Plant response rating, Nutsedge ([6]; Rate 500 g/ha, Preemergence): 0 | Plant response rating, Bedstraw [7, 11]: 0 | Bedstraw plant response rating ([7]; Rate 62 g/ha, Postemergence): 3 | Bedstraw plant response rating ([7]; Rate 125 g/ha, Postemergence): 4 | Plant response rating, Bedstraw ([7]; Rate 125 g/ha, Preemergence): 0 | Plant response rating, Bedstraw ([7]; Rate 250 g/ha, Postemergence): 7 | Plant response rating, Bedstraw ([7]; Rate 250 g/ha, Preemergence): 1 | Plant response rating, Bedstraw ([7]; Rate 500 g/ha, Postemergence): 9 | Plant response rating, Bedstraw ([7]; Rate 500 g/ha, Preemergence): 4 | Plant response rating, Wild oats (wild oat (Avena fatua); [11]): 0 | Wild oats plant response rating (wild oat (Avena fatua); Rate 62 g/ha, Postemergence): 1 | Wild oats plant response rating (wild oat (Avena fatua); Rate 125 g/ha, Postemergence): 2 | Plant response rating, Wild oats (wild oat (Avena fatua); Rate 125 g/ha, Preemergence): 1 | Plant response rating, Wild oats (wild oat (Avena fatua); Rate 250 g/ha, Postemergence): 3 | Plant response rating, Wild oats (wild oat (Avena fatua); Rate 250 g/ha, Preemergence): 3 | Plant response rating, Wild oats (wild oat (Avena fatua); Rate 500 g/ha, Postemergence): 3 | Plant response rating, Wild oats (wild oat (Avena fatua); Rate 500 g/ha, Preemergence): 4 | Plant response rating, Corn (corn (Zea mays); [11]): 0 | Corn plant response rating (corn (Zea mays); Rate 62 g/ha, Postemergence): 2 | Corn plant response rating (corn (Zea mays); Rate 125 g/ha, Postemergence): 2 | Plant response rating, Corn (corn (Zea mays); Rate 125 g/ha, Preemergence): 0 | Plant response rating, Corn (corn (Zea mays); Rate 250 g/ha, Postemergence): 3 | Plant response rating, Corn (corn (Zea mays); Rate 250 g/ha, Preemergence): 1 | Plant response rating, Corn (corn (Zea mays); Rate 500 g/ha, Postemergence): 3 | Plant response rating, Corn (corn (Zea mays); Rate 500 g/ha, Preemergence): 1 | Plant response rating, Rape (rape (Brassica napus); [11]): 0 | Rape plant response rating (rape (Brassica napus); Rate 62 g/ha, Postemergence): 7 | Rape plant response rating (rape (Brassica napus); Rate 125 g/ha, Postemergence): 8 | Plant response rating, Rape (rape (Brassica napus); Rate 125 g/ha, Preemergence): 0 | Plant response rating, Rape (rape (Brassica napus); Rate 250 g/ha, Postemergence): 9 | Plant response rating, Rape (rape (Brassica napus); Rate 250 g/ha, Preemergence): 3 | Plant response rating, Rape (rape (Brassica napus); Rate 500 g/ha, Postemergence): 9 | Plant response rating, Rape (rape (Brassica napus); Rate 500 g/ha, Preemergence): 3 | Plant response rating, Wheat [8, 11]: 0 | Wheat plant response rating ([8]; Rate 62 g/ha, Postemergence): 0 | Wheat plant response rating ([8]; Rate 125 g/ha, Postemergence): 2 | Plant response rating, Wheat ([8]; Rate 125 g/ha, Preemergence): 0 | Plant response rating, Wheat ([8]; Rate 250 g/ha, Postemergence): 2 | Plant response rating, Wheat ([8]; Rate 250 g/ha, Preemergence): 0 | Plant response rating, Wheat ([8]; Rate 500 g/ha, Postemergence): 2 | Plant response rating, Wheat ([8]; Rate 500 g/ha, Preemergence): 1 | Plant response rating, Giant foxtail [9, 11]: 1 | Giant foxtail plant response rating ([9]; Rate 62 g/ha, Postemergence): 2 | Giant foxtail plant response rating ([9]; Rate 125 g/ha, Postemergence): 3 | Plant response rating, Giant foxtail ([9]; Rate 125 g/ha, Preemergence): 1 | Plant response rating, Giant foxtail ([9]; Rate 250 g/ha, Postemergence): 4 | Plant response rating, Giant foxtail ([9]; Rate 250 g/ha, Preemergence): 8 | Plant response rating, Giant foxtail ([9]; Rate 500 g/ha, Postemergence): 4 | Plant response rating, Giant foxtail ([9]; Rate 500 g/ha, Preemergence): 10 | Plant response rating, Redroot pigweed [10, 11]: 1 | Redroot pigweed plant response rating ([10]; Rate 62 g/ha, Postemergence): 4 | Redroot pigweed plant response rating ([10]; Rate 125 g/ha, Postemergence): 5 | Plant response rating, Redroot pigweed ([10]; Rate 125 g/ha, Preemergence): 2 | Plant response rating, Redroot pigweed ([10]; Rate 250 g/ha, Postemergence): 6 | Plant response rating, Redroot pigweed ([10]; Rate 250 g/ha, Preemergence): 7 | Plant response rating, Redroot pigweed ([10]; Rate 500 g/ha, Postemergence): 7 | Plant response rating, Redroot pigweed ([10]; Rate 500 g/ha, Preemergence): 9
